Values joined by “and” are separate entries in the source; they are usually repeats but may differ in a detail not shown here. Identical values can stand only once.
Assay: Particle Size Distribution of zilpaterol hydrochloride batches
Format: physicochemical
Details: batches from crystallization process of Examples 4
Text: As used herein, particle size refers to a number particle size as measured by conventional particle size measuring techniques well known to those skilled in the art, such as laser scattering, sedimentation field flow fractionation, photon correlation spectroscopy, or disk centrifugation.
The particle size measurement indicated as Particle Size Distribution (relative amounts of particles present, sorted according to size) can be e.g. performed with a Malvern Mastersizer 2000 with the Hydro 2000G measuring cell, or with a Horiba LA-910 laser scattering particle size distribution analyzer.

SMILES: CC(C)N[C@@H]1CCn2c(=O)[nH]c3cccc(c32)[C@H]1O (racemic) [Example 3, trans-(±)-4,5,6,7-tetrahydro-7-hydroxy-6-[(1-methylethyl)amino]-imidazo[4,5,1-jk][1]benzazepin-2(1H)-one]
- Particle size Distribution <=15 μm (relative amount of crystal particles with size <=15 μm): 2.9% and 1.6% and 3.0%
- Particle size Distribution >=200 μm (relative amount of crystal particles with size >=200 μm): 7.8% and 14.3% and 11.0%
- Particle size Distribution >=250 μm (relative amount of crystal particles with size >=250 μm): 0.3% and 1.7% and 0.8%
- Particle size Distribution >=300 μm (relative amount of crystal particles with size >=300 μm): 0% and 0.2%

Reference: patent US8343956B2, “Process for making a crystalline zilpaterol salt” (Intervet International B.V., priority 2008, dated 2013)
